#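 The compound was tested at five concentrations on cells cultured in 96-well plates, with a 48-hour exposure period. Definition used: TGI = concentration required for complete inhibition of growth.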
# Columns and labels:
# Experiment in all cases: NCI tumour cell line growth inhibition, 48 h
# EKVX NSCLC = test system: EKVX NSCLC
# HCC-2998 colon = test system: HCC-2998 colon
# HL-60(TB) leukemia = test system: HL-60(TB) leukemia
# HOP-62 NSCLC = test system: HOP-62 NSCLC
# K-562 leukemia = test system: K-562 leukemia
# M14 melanoma = test system: M14 melanoma
# MALME-3M melanoma = test system: MALME-3M melanoma
# MDA-N = test system: MDA-N
# MOLT-4 leukemia = test system: MOLT-4 leukemia
# NCI-H226 lung = test system: NCI-H226 lung
# OVCAR-4 ovarian = test system: OVCAR-4 ovarian
# OVCAR-5 ovarian = test system: OVCAR-5 ovarian
# PC-3 prostate = test system: PC-3 prostate
# RPMI-8226 leukemia = test system: RPMI-8226 leukemia
# SF-268 CNS = test system: SF-268 CNS
# SF-295 CNS = test system: SF-295 CNS
# SW-620 colon = test system: SW-620 colon
# TK-10 renal = test system: TK-10 renal
# UACC-62 melanoma = test system: UACC-62 melanoma
Compound,TGI (EKVX NSCLC),TGI (HCC-2998 colon),TGI (HL-60(TB) leukemia),TGI (HOP-62 NSCLC),TGI (K-562 leukemia),TGI (M14 melanoma),TGI (MALME-3M melanoma),TGI (MDA-N),TGI (MOLT-4 leukemia),TGI (NCI-H226 lung),TGI (OVCAR-4 ovarian),TGI (OVCAR-5 ovarian),TGI (PC-3 prostate),TGI (RPMI-8226 leukemia),TGI (SF-268 CNS),TGI (SF-295 CNS),TGI (SW-620 colon),TGI (TK-10 renal),TGI (UACC-62 melanoma)
CCOC(=O)c1c(CN2CCOCC2)n(Cc2ccccc2)c2c1cc(O)c1nc(C)c(C)nc12,> 100 µM,> 100 µM,> 100 µM,51.1 µM,> 100 µM,> 100 µM,> 100 µM,> 100 µM,> 100 µM,> 100 µM,> 100 µM,> 100 µM,92.4 µM,> 100 µM,54.4 µM,> 100 µM,> 100 µM,97.7 µM,> 100 µM
CC(C)[C@H]1NC(=O)[C@H]2N=C(O[C@@H]2C)[C@@H]2CCCN2C(=O)[C@H](Cc2ccccc2)NC(=O)[C@@H]2COC(=N2)[C@@H](Cc2ccccc2)NC(=O)[C@@H]2COC1=N2,> 100 µM,> 100 µM,> 100 µM,> 100 µM,> 100 µM,> 100 µM,> 100 µM,> 100 µM,> 100 µM,> 100 µM,> 100 µM,> 100 µM,> 100 µM,> 100 µM,> 100 µM,> 100 µM,> 100 µM,> 100 µM,> 100 µM

# — PubChem BioAssay (NCI)
